Columns and labels:
Type in all cases: cell-based
OCT4 (FKBP-tagged) [1] = target: T1, OCT4 (FKBP-tagged) (Mus musculus, UniProt P20263+Q8C7D2); assay: Western blot after OCT4 degradation in OCT4 degron line; conditions: dTag versus DMSO
T1 construct: an ESC line bearing endogenous knock-in of DNA encoding the FKBP protein fused to OCT4; HA (C); endogenous in cells; host or cells: V6.5 mouse ES cells (Med1-mEGFP background), homozygous Oct4-FKBP knock-in
Experimental: Cells were lysed in Cell Lytic M (Sigma-Aldrich C2978) with protease inhibitors (Roche, 11697498001). Lysate was run on a 3%-8% Tris-acetate gel or 10% Bis-Tris gel or 3-8% Bis-Tris gels at 80 V for ˜2 hrs, followed by 120 V until dye front reached the end of the gel. Protein was then wet transferred to a 0.45 μm PVDF membrane (Millipore, IPVH00010) in ice-cold transfer buffer (25 mM Tris, 192 mM glycine, 10% methanol) at 300 mA for 2 hours at 4° C. After transfer the membrane was blocked with 5% non-fat milk in TBS for 1 hour at room temperature, shaking. Membrane was then incubated with 1:1,000 of the indicated antibody (Table S4) diluted in 5% non-fat milk in TBST and incubated overnight at 4° C., with shaking. In the morning, the membrane was washed three times with TBST for 5 minutes at room temperature shaking for each wash. Membrane was incubated with 1:5,000 secondary antibodies for 1 hr at RT and washed three times in TBST for 5 minutes. Membranes were developed with ECL substrate (Thermo Scientific, 34080) and imaged using a CCD camera or exposed using film or with high sensitivity ECL.
The CRISPR/Cas9 system was used to genetically engineer ESC lines. Target-specific oligonucleotides were cloned into a plasmid carrying a codon-optimized version of Cas9 with GFP (gift from R. Jaenisch). […]

OCT4 (FKBP-tagged) [2] = target: T1, OCT4 (FKBP-tagged); assay: RNA-seq after OCT4 degradation in OCT4-FKBP ESCs; conditions: dTag 24 hours versus DMSO
Experimental: RNA-Seq was performed in the indicated cell line with the indicated treatment, and used to determine expressed genes. RNA was isolated by AllPrep Kit (Qiagen 80204) and stranded polyA selected libraries was prepared using the TruSeq Stranded mRNA Library Prep Kit (Illumina, RS-122-2101) according to manufacturer's protocol and single-end sequenced on a Hi-seq 2500 instrument.
The CRISPR/Cas9 system was used to genetically engineer ESC lines. Target-specific oligonucleotides were cloned into a plasmid carrying a codon-optimized version of Cas9 with GFP (gift from R. Jaenisch). The sequences of the DNA targeted (the protospacer adjacent motif is underlined) are listed in the same table. […]
For analysis, raw reads were aligned to the mm9 revision of the mouse reference genome using hisat2 with default parameters. Gene name-level read count quantification was performed with htseq-count with parameters -I gene_id -stranded=reverse -f bam -m intersection-strict and a GTF containing transcript positions from Refseq, downloaded 6/6/18. Normalized counts, normalized fold-changes, and differential expression p values were determined using DEseq2 using the standard workflow and both replicates of each condition.

OCT4 (FKBP-tagged) [3] = target: T1, OCT4 (FKBP-tagged); assay: MED1 IF with DNA FISH at Nanog after OCT4 degradation; conditions: dTag versus DMSO
Experimental: Immunofluorescence was performed as previously above. After incubating the cells with the secondary antibodies, cells were washed three times in PBS for 5 min at RT, fixed with 4% PFA in PBS for 10 min and washed three times in PBS. Cells were incubated in 70% ethanol, 85% ethanol and then 100% ethanol for 1 minute at RT. Probe hybridization mixture was made mixing 7 μL of FISH Hybridization Buffer (Agilent G9400A), 1 μl of FISH probes (see below for region) and 2 μL of water. 5 μL of mixture was added on a slide and coverslip was placed on top (cell-side toward the hybridization mixture). Coverslip was sealed using rubber cement. Once rubber cement solidified, genomic DNA and probes were denatured at 78° C. for 5 minutes and slides were incubated at 16° C. in the dark O/N. The coverslip was removed from slide and incubated in pre-warmed Wash buffer 1 (Agilent, G9401A) at 73° C. for 2 minutes and in Wash Buffer 2 (Agilent, G9402A) for 1 minute at RT. […]
For analysis of RNA FISH with immunofluorescence custom in-house MATLAB™ scripts were written to process and analyze 3D image data gathered in FISH (RNA/DNA) and IF channels. […] The IF signal centered at FISH foci for each FISH and IF pair are then combined and an average intensity projection is calculated, providing averaged data for IF signal intensity within a l×l square centered at FISH foci. […]

[4] = system: ER LBD-MED1 condensate in U2OS-Lac cells; assay: Live cell imaging of U2OS-Lac cells with endogenously tagged MED1-mEGFP; conditions: after 10 nM B-Estradiol 45 minutes; 10 uM 4-Hydroxytamoxifen, 30 minutes
Experimental: Cells were imaged pre-treatment and 30 minutes after treatment with a 1:1000 dilution of DMSO or 10 uM 4-Hydroxytamoxifen in Estrogen-free DMEM. Quantification was performed in FIJI; the instrument background was subtracted from the average signal intensity in the array, then divided by the instrument background subtracted from an average nuclear signal to yield the normalized signal intensity.

T1 sequence (P20263 with tags, fused parts or gaps): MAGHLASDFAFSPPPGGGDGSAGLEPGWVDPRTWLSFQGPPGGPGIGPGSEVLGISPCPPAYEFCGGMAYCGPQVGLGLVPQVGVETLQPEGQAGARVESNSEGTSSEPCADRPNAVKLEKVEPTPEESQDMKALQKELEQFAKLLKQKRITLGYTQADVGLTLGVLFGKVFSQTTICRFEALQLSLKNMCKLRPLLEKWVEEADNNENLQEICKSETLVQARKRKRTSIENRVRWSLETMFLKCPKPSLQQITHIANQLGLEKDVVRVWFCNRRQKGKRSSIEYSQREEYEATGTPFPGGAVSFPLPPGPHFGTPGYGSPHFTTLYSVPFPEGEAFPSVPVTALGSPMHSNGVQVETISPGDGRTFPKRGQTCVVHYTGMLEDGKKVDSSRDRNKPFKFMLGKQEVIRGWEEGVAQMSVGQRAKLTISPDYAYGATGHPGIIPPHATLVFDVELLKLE
T1 sequence (Q8C7D2 whole entry, the tested form may be a part): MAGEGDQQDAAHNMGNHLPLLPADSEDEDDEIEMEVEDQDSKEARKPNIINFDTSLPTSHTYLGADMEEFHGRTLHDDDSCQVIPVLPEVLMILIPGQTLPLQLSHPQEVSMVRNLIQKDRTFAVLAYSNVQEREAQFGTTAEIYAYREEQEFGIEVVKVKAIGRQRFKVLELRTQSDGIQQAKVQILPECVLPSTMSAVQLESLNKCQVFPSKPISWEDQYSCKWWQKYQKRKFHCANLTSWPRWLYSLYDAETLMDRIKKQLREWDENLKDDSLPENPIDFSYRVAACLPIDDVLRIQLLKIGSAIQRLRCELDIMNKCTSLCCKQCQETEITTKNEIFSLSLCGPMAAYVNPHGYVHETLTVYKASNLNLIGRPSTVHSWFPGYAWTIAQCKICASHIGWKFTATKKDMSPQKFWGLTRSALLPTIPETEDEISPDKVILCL
T1 sequence (Q3U1J4 whole entry partner, the tested form may be a part): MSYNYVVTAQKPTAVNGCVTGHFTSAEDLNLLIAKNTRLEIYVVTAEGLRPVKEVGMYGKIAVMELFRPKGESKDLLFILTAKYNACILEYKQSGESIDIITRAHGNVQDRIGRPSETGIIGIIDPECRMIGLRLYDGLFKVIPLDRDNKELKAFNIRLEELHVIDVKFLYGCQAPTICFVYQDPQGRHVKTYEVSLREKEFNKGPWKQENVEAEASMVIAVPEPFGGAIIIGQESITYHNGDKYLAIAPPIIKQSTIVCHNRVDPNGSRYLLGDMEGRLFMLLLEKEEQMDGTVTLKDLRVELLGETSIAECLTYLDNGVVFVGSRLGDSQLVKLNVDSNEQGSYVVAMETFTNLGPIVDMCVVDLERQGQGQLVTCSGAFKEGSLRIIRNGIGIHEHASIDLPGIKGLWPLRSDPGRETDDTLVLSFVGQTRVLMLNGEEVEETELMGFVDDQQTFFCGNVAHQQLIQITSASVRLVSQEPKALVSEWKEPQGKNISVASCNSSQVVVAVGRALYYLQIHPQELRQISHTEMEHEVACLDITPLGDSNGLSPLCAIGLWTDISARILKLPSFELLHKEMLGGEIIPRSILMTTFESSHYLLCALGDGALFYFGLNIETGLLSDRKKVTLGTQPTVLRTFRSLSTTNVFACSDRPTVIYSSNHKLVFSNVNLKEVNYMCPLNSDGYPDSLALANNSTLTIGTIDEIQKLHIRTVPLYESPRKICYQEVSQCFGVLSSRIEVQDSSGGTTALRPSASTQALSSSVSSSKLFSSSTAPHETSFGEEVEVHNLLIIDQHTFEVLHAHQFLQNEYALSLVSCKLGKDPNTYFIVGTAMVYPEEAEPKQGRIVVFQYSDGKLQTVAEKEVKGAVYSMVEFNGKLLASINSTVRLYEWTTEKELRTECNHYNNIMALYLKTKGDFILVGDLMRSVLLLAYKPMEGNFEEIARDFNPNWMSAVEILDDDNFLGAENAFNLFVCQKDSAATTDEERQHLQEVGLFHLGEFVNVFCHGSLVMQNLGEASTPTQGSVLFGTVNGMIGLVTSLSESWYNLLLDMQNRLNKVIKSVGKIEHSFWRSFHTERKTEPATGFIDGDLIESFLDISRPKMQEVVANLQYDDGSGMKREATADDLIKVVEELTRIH

Row | SMILES | MED1 protein levels (OCT4 (FKBP-tagged) [1]) | OCT4 protein levels (OCT4 (FKBP-tagged) [1]) | expression of SE-driven genes (OCT4 (FKBP-tagged) [2]) | reduction in Nanog mRNA levels (OCT4 (FKBP-tagged) [2]) [%] | MED1 condensates at Nanog (OCT4 (FKBP-tagged) [3]) | Effect on ER LBD-MED1 condensate, live cell imaging [4]
1 | CC[C@H](C(=O)N1CCCC[C@H]1C(=O)O[C@H](CCc1ccc(OC)c(OC)c1)c1ccccc1OCC(=O)NCCCCCCCCNc1ccc2c(c1)C(=O)N(C1CCC(=O)NC1=O)C2=O)c1cc(OC)c(OC)c(OC)c1 (stereo partly drawn) [dTag] | did not affect MED1 levels | reduced OCT4 protein levels | concomitantly decreased | 60 | reduction in MED1 condensates at Nanog | 
2 | CC/C(=C(\c1ccccc1)c1ccc(OCCN(C)C)cc1)c1ccccc1 [tamoxifen] |  |  |  |  |  | dissolves the ER LBD-MED1 condensate
